Source: patent publication US20250011881A1, “MYC-HSF1 DUAL AMPLIFICATION AS A BIOMARKER FOR CANCER TREATMENT” (The Trustees of Indiana University, priority 2023, published 2025)
Several values for one entry are separate records, joined by “and”; a condition that tells them apart may be missing. Equal values may be shown once. Where a name gives a salt, the structure may show the parent alone.

Each compound was assayed on ovarian cancer cells with (OVCAR8, OVCAR4) or without (OVSAHO, CAOV3) MYC-HSF1 amplification (assay: Epigenetic inhibitor drug screen, cell viability (Cell Titer Blue)). Conditions: not given.
Assay type: cell-based

| Compound | Non Amp - AMP (POC) 10 uM [POC] |
| --- | --- |
| Ginkgolide C | −1.319 |
| CCN1CCN(C(=O)Cc2ccc(Nc3ncc(F)c(Nc4ccc(C(=O)Nc5ccccc5Cl)cc4)n3)cc2)CC1 [Aurora A Inhibitor I] | 8.339 |
| CCCCCCCCCCCCCC(=O)O[C@@H]1[C@@H](C)[C@@]2(O)[C@@H](C=C(CO)C[C@]3(O)C(=O)C(C)=C[C@@H]23)[C@@H]2C(C)(C)[C@]12OC(C)=O [12-O-tetradecanoyl phorbol-13-acetate] | −2.545 |

Same assay, conditions: 10 uM, 48 hrs; average relative cell viability (vs 1% DMSO) of non-amplified cells (OVSAHO, CAOV3) minus that of MYC-HSF1 amplified cells (OVCAR8, OVCAR4); positive = greater response in amplified cells

| Compound | Non Amp - AMP (POC) 10 uM [POC] |
| --- | --- |
| O=C(c1ccc(/C=C/c2n[nH]c3ccccc23)cc1)N1CCNCC1 [KW 2449] | 6.231 |
| COCCCn1c(N)c(C(=O)NC2CCCC2)c2nc3ccccc3nc21 [CAY10591] | 11.91 |
| C=C(C)[C@@H](CC=C(C)C)C[C@@]12C[C@@H](CC=C(C)C)C(C)(C)[C@@](CC=C(C)C)(C(=O)C(C(=O)c3ccc(O)c(O)c3)=C1O)C2=O [Garcinol] | 6.401 |
| COc1cc2c(Nc3ccc(NC(=O)c4ccccc4)cc3)ncnc2cc1OCCCN1CCOCC1 [ZM 447439] | 0.5089 |
| C[C@@H]1O[C@@H](Oc2c(-c3cc(O)c(O)c(O)c3)oc3cc(O)cc(O)c3c2=O)[C@H](O)[C@H](O)[C@H]1O [Myricetrin] | −0.2723 |
| O=S(=O)(O)c1ccc2cc(N=Nc3cc(S(=O)(=O)O)c4cccnc4c3O)ccc2c1 [NSC 87877] | 8.877 |
| C=CC(=O)c1ccc2ccccc2c1 [ZM 449829] | 4.711 |
| O=C(O)c1ccccc1Nc1cccc(C(F)(F)F)c1 [Flufenamic acid] | −4.318 |
| CC(C)N(CCCNC(=O)Nc1ccc(C(C)(C)C)cc1)C[C@H]1O[C@@H](n2ccc3c(N)ncnc32)[C@H](O)[C@@H]1O.O=CO [EPZ004777 (formate)] | 10.91 |
| Nc1ccccc1NC(=O)CCCCCC(=O)Nc1ccccc1 [PAOA] | 29.57 |
| Cc1nc(-c2cccnc2)sc1C(=O)Nc1ccccc1-c1cn2c(CN3CCOCC3)csc2n1 [SRT2104 (GSK2245840)] | −1.9 |
| Nc1ncnc2c1ncn2[C@@H]1O[C@H](C[C@@H](N)CC[C@H](N)C(=O)O)[C@@H](O)[C@H]1O [Sirefungin] | 12.42 |
| O=C(O)CNC(=O)C(=O)O [N-Oxalylglycine] | 14.36 |
| Cc1cn([C@H]2C[C@H](O)[C@@H](CO)O2)c(=O)nc1N [5-Methyl-2′-deoxycytidine] | −10.37 |
| O=C(NO)c1cccc(C(=O)NCCc2ccccc2)c1 [BRD73954] | 10.33 |
| NC(=O)c1ccccc1 [Benzamide] | −5.576 |
| COc1cc(Nc2ncc3c(n2)-c2ccc(Cl)cc2C(c2c(F)cccc2OC)=NC3)ccc1C(=O)O [MLN8237 (Alisertib), Alisertib] | −25.51 |
| CCCCN(Cc1ccc(C(=O)NO)cc1)C(=O)Nc1ccccc1 [Nexturastat A] | 23.67 |
| O=C(CCCCCCC(=O)Nc1ccc(I)cc1)NO [4-iodo-SAHA] | 29.5 |
| Cn1cc(C2=C(c3cn(C4CCN(Cc5ccccn5)CC4)c4ccccc34)C(=O)NC2=O)c2ccccc21 [Enzastaurin (LY317615), Enzastaurin] | 13.08 |

| Compound | Non Amp - AMP (POC) 10 uM [POC] |
| --- | --- |
| Cc1nc(N)sc1-c1ccnc(Nc2ccc(N3CCOCC3)cc2)n1 [CYC116] | 8.383 |
| CN(C)Cc1ccc(-c2nc3cccc4c3n2CCNC4=O)cc1 [AG-14361] | 0.2059 |
| [H]/N=C(/N)N/C(=N/[H])NCCc1ccccc1 [Phenformin HCl] | 7.32 |
| Nc1cc(F)ccc1NC(=O)c1ccc(CNC(=O)/C=C/c2cccnc2)cc1 [Chidamide] | 33.85 |
| N#C/C(=C/c1ccc(O)c(O)c1)C(=O)NCc1ccccc1 [AG-490] | −10.83 |
| CPI-455 | −8.682 |
| COc1ccccc1C(=O)Nc1cc2c(cc1N1CCCCC1)n(C)c(=O)n2C [GSK 5959] | 10.99 |
| CN(C)c1ccc(C(=O)NCCCCCC(=O)NO)cc1 [CAY10398] | 48.61 |
| CC(C)[C@H](C(=O)Nc1ccc(C(=O)NO)cc1)c1ccccc1 [AR-42 (OSU-HDAC42)] | −6.14 |
| COC(=O)/C=C/C(=O)N(O)CCCCNCc1ccc(COC(=O)Nc2cccc3ccccc23)cc1 [Methylstat (hydrate), Methylstat] | −5.079 |
| CCS(=O)(=O)c1cccc(-c2cc(C(=O)NC3CCN(C)CC3)c(C)c3[nH]c4ncc(C)cc4c23)c1 [TAK-901] | 3.351 |
| COC(=O)[C@]12CCC(C)(C)C[C@H]1[C@H]1C(=O)C=C3[C@@]4(C)C=C(C#N)C(=O)C(C)(C)[C@@H]4CC[C@@]3(C)[C@]1(C)CC2 [Bardoxolone methyl] | 6.087 |
| C[C@@H]1CC[C@@]2(OC1)O[C@H]1C[C@H]3[C@@H]4CC=C5C[C@@H](O)CC[C@]5(C)[C@H]4CC[C@]3(C)[C@H]1[C@@H]2C [Diosgenin] | 5.646 |
| O=C(O)CC[C@H](O)C(=O)O [L-a-Hydroxyglutaric Acid] | −7.873 |
| COc1nnc2ccc(N3CCC(c4ccc(OCCN5CCN(C)C(=O)[C@H]5C)cc4)CC3)nn12 [AZD 5153] | 11.52 |
| BrC1C(Br)C(Br)C(Br)C(Br)C1Br (stereo not shown) [1,2,3,4,5,6-Hexabromocyclohexane] | −13.98 |
| N#Cc1c(Oc2ccc(F)c(NC(=O)Cc3cccc(C(F)(F)F)c3)c2)ccc2nc(NC(=O)C3CC3)sc12 [TAK-632] | −12.18 |
| CN1CCC(=C2c3ccccc3C=Cc3ccccc32)CC1 [Cyproheptadine (hydrochloride hydrate), Cyproheptadine] | 6.958 |
| CCCCCCCCOC(=O)C(O)CCC(=O)O (stereo not shown) [Octyl-a-hydroxyglutarate] | 0.5587 |

Same assay, conditions: 10 uM, 48 hrs; average relative cell viability (vs 1% DMSO) of non-amplified cells (OVSAHO, CAOV3) minus that of MYC-HSF1 amplified cells (OVCAR8, OVCAR4); positive = greater response in amplified cells; 10 µM

| Compound | Non Amp - AMP (POC) 10 uM |
| --- | --- |
| C[S+]([O-])CCCCN=C=S [L-Sulforaphane] | −5.74 POC |
| Cc1cc(C)cc(C(=O)NOCCCCCC(=O)NO)c1 [LMK 235] | 44.96 POC and 34.77 POC |
| Cn1c(/C=C/C(=O)NO)ccc1/C=C/C(=O)c1cccc(F)c1 [MC 1568] | −4.947 POC |
| COc1ccccc1S(=O)(=O)Nc1ccc2c(c1)CN(C)C(=O)N2 [PFI-1] | 9.637 POC |
| Clc1ccc(N/N=C(\c2ccccc2)c2ccccn2)nc1 [JIB-04] | 13.4 POC and 8.34 POC |
| C[C@@H]1CCN(C(=O)CC#N)C[C@@H]1N(C)c1ncnc2[nH]ccc12 [Tofacitinib (CP-690550, Tasocitinib), Tofacitinib] | −2.781 POC |
| Nc1nccc2c1ncn2[C@@H]1C=C(CO)[C@@H](O)[C@H]1O [3-Deazaneplanocin A] | 28.52 POC |
| O=C(O)c1ccnc(C(=O)O)c1 [2,4-Pyridinedicarboxylic Acid (hydrate), 2,4-Pyridinedicarboxylic Acid] | 10.85 POC |
| N#CC[C@H](C1CCCC1)n1cc(-c2ncnc3[nH]ccc23)cn1 [Ruxolitinib (INCB018424), Ruxolitinib] | −4.311 POC |
| Cl.O=C([C@@H](Cc1cccc(C(F)(F)F)c1)NS(=O)(=O)c1cc(F)c2c(c1)CCNC2)N1CCCC1 [(R)-PFI-2 (hydrochloride)] | 19.35 POC |

Same assay, conditions: 10 uM, 48 hrs; average relative cell viability (vs 1% DMSO) of non-amplified cells (OVSAHO, CAOV3) minus that of MYC-HSF1 amplified cells (OVCAR8, OVCAR4); positive = greater response in amplified cells; dihydrochloride, 10 µM

| Compound | Non Amp - AMP (POC) 10 uM [POC] |
| --- | --- |
| C[C@]1(c2nc3c(C(N)=O)cccc3[nH]2)CCCN1 [Veliparib dihydrochloride] | −2.841 |

Same assay, conditions: 10 uM, 48 hrs; average relative cell viability (vs 1% DMSO) of non-amplified cells (OVSAHO, CAOV3) minus that of MYC-HSF1 amplified cells (OVCAR8, OVCAR4); positive = greater response in amplified cells; listed as MC1568, 10 µM

| Compound | Non Amp - AMP (POC) 10 uM [POC] |
| --- | --- |
| Cn1c(/C=C/C(=O)NO)ccc1/C=C/C(=O)c1cccc(F)c1 [MC 1568] | −17.78 |

Same assay, conditions: 10 uM, 48 hrs; average relative cell viability (vs 1% DMSO) of non-amplified cells (OVSAHO, CAOV3) minus that of MYC-HSF1 amplified cells (OVCAR8, OVCAR4); positive = greater response in amplified cells; listed as PFI-1 (PF-6405761), 10 µM

| Compound | Non Amp - AMP (POC) 10 uM [POC] |
| --- | --- |
| COc1ccccc1S(=O)(=O)Nc1ccc2c(c1)CN(C)C(=O)N2 [PFI-1] | 2.51 |
